Data on 13 compounds can be found in patent US9493446B2, “Orexin receptor antagonists which are [ortho bi-(hetero-)aryl]-[2-(meta bi-(hetero-)aryl)-pyrrolidin-1-yl]-methanone derivatives” (Actelion Pharmaceuticals Ltd, priority 2012, dated 2016).

The target of one experiment is human orexin-2 receptor (Homo sapiens (Human), UniProt O43614). The experiment in a line: Intracellular calcium measurement (FLIPR), CHO cells expressing human orexin-2 receptor, 3 nM orexin-A. The conditions noted are these: CHO cells expressing human orexin-2 receptor, FLIPR, 3 nM orexin-A; geometric mean if determined several times; read-out: IC50 OX2. The experiment is classed as cell-based. Summed up:
(§1)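 Antagonist is added 120 min before agonist. Fluo-4 AM-loaded CHO cells carry human orexin-1 or orexin-2 receptor, and calcium is read by FLIPR.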
In general terms: Calcium assays in cells follow changes in intracellular calcium, usually with a dye or a luminescent sensor.

The next experiment has as its target orexin-1 (Homo sapiens (Human), UniProt O43613). Briefly: Intracellular calcium measurement (FLIPR), CHO cells expressing human orexin-1 receptor, 3 nM orexin-A. The experiment is classed as cell-based. The conditions noted are these: CHO cells expressing human orexin-1 receptor, FLIPR, 3 nM orexin-A; geometric mean if determined several times; read-out: IC50 OX1. Summed up:
as §1

Sequence of orexin-1 (O43613 whole entry): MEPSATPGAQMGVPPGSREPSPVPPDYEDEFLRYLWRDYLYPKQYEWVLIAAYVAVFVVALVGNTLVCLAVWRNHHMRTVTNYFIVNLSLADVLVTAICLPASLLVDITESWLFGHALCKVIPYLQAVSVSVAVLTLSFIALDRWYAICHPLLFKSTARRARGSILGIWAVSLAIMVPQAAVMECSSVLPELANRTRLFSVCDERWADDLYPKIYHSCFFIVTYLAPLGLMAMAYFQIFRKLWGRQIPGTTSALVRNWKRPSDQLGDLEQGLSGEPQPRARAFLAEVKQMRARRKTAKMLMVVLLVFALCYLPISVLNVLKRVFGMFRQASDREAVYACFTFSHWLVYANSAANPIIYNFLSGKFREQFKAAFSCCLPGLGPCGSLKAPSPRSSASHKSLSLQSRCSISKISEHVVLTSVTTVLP
Sequence of human orexin-2 receptor (O43614 whole entry): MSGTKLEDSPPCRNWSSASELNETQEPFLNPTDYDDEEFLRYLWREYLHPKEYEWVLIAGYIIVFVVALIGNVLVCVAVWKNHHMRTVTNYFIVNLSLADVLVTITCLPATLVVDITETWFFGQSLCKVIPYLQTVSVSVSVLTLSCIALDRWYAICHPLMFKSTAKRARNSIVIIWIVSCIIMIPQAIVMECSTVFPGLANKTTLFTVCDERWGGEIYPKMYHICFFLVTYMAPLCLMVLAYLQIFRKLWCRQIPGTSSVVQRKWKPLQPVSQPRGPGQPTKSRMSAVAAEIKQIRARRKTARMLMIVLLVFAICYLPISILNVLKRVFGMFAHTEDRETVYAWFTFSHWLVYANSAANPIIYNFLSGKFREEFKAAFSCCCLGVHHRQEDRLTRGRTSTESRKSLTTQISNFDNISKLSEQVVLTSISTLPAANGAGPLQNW

By IC50 is commonly meant the concentration at which inhibition is half-maximal. `CCOc1c(F)cccc1-c1noc([C@@H]2CCCN2C(=O)c2cc(C)c(C)cc2-n2nccn2)n1` [compound 290, (4,5-Dimethyl-2-[1,2,3]triazol-2-yl-phenyl)-{(S)-2-[3-(2-ethoxy-3-fluoro-phenyl)-[1,2,4]oxadiazol-5-yl]-pyrrolidin-1-yl}-methanone]: the 50% inhibitory concentration (IC50) on human orexin-2 receptor is 5 nM; on orexin-1 it was 9 nM.
In the case of `Cc1cc(-n2nccn2)c(C(=O)N2CCC[C@H]2c2nc(-c3cccc(Cl)c3C)no2)cc1Cl` [compound 293], the 50% inhibitory concentration (IC50) turned out to be 10 nM on human orexin-2 receptor and 32 nM on orexin-1.
Regarding `COc1cc(C(=O)N2CCC[C@H]2c2nc(-c3cccc(F)c3OC)no2)c(-n2nccn2)cc1Cl` [compound 282], the values for the half-maximal inhibitory concentration (IC50) on human orexin-2 receptor and on orexin-1 were 1 nM and 44 nM, respectively.
With `Cc1cc(-n2nccn2)c(C(=O)N2CCC[C@@]2(C)c2nnc(-c3cccc(Cl)c3C)[nH]2)cc1Cl` [compound 552], the results for the IC50 at human orexin-2 receptor and on orexin-1 were 7 nM and 9 nM, respectively.
The matching figures for `Cc1c(Cl)cccc1-c1nnc([C@]2(C)CCCN2C(=O)c2ccc(Cl)cc2-n2nccn2)[nH]1` [compound 555]: 11 nM and 27 nM.
The matching figures for `COc1ccc(-n2nccn2)c(C(=O)N2CCC[C@H]2c2nc(-c3cccc(F)c3OC)no2)c1` [compound 199, {(S)-2-[3-(3-Fluoro-2-methoxy-phenyl)-[1,2,4]oxadiazol-5-yl]-pyrrolidin-1-yl}-(5-methoxy-2-[1,2,3]triazol-2-yl-phenyl)-methanone]: 12 nM and 83 nM.
The matching figures for `CCOc1ncccc1-c1nc([C@@H]2CCCN2C(=O)c2cc(C)c(C)cc2-n2nccn2)no1` [compound 331, (4,5-Dimethyl-2-[1,2,3]triazol-2-yl-phenyl)-{(S)-2-[5-(2-ethoxy-pyridin-3-yl)-[1,2,4]oxadiazol-3-yl]-pyrrolidin-1-yl}-methanone]: 0.5 nM and 1 nM.
Regarding `Cc1c(F)cccc1-c1nc([C@@H]2CCCN2C(=O)c2ccc(Cl)cc2-n2nccn2)no1` [compound 379], the half-inhibitory concentration (IC50) on human orexin-2 receptor stood at 5 nM; on orexin-1, 52 nM.
The matching figures for `O=C(c1ccccc1-c1ccccc1)N1CCC[C@H]1c1nnc(-c2ccccc2OC(F)(F)F)[nH]1` [compound 508, Biphenyl-2-yl-{(S)-2-[5-(2-trifluoromethoxy-phenyl)-4H-[1,2,4]triazol-3-yl]-pyrrolidin-1-yl}-methanone]: 84 nM and 239 nM.
Turning to `COc1cccc(-c2nc([C@@H]3CCCN3C(=O)c3cc(C)ccc3-n3nccn3)no2)c1C` [compound 359, {(S)-2-[5-(3-Methoxy-2-methyl-phenyl)-[1,2,4]oxadiazol-3-yl]-pyrrolidin-1-yl}-(5-methyl-2-[1,2,3]triazol-2-yl-phenyl)-methanone], the IC50 on human orexin-2 receptor came out at 30 nM; on orexin-1, 325 nM.
With `Cc1ccc(-n2nccn2)c(C(=O)N2CCC[C@H]2c2cnc(-c3cccc(Cl)c3C)[nH]2)c1` [compound 521], the concentration for half-maximal inhibition (IC50) was found to be 681 nM on human orexin-2 receptor and 2510 nM on orexin-1.
The matching figures for `COc1ccc(F)c(-c2noc([C@@H]3CCCN3C(=O)c3cc(C)ccc3-n3nccn3)n2)c1F` [compound 69, {(S)-2-[3-(2,6-Difluoro-3-methoxy-phenyl)-[1,2,4]oxadiazol-5-yl]-pyrrolidin-1-yl}-(5-methyl-2-[1,2,3]triazol-2-yl-phenyl)-methanone]: 163 nM and 1840 nM.
Consider `COc1c(F)cccc1-c1nc([C@@H]2CCCN2C(=O)c2ccccc2-n2nccn2)no1` [compound 334, {(S)-2-[5-(3-Fluoro-2-methoxy-phenyl)-[1,2,4]oxadiazol-3-yl]-pyrrolidin-1-yl}-(2-[1,2,3]triazol-2-yl-phenyl)-methanone], for which the IC50 on human orexin-2 receptor turned out to be 12 nM; at orexin-1, 320 nM.
